Assay results as given in patent publication US10450292B2, “Inhibitors of bacterial RNA polymerase: arylpropanoyl, arylpropenoyl, and arylcyclopropanecarboxyl phloroglucinols” (Rutgers, The State University of New Jersey, priority 2015, dated 2019).
Converted amounts (≈) assume the structure as drawn. Like-named read-outs stand apart in the source and are kept apart here.

Key:
[1] = test system: Enterococcus faecalis ATCC 19433; assay: Inhibition of bacterial growth in culture, spiral gradient endpoint assay (MIC); type: cell-based; conditions: Enterococcus faecalis, ATCC 19433 /, 16 h
Source text: J. Microbiol. Meths. […] Int. J. Exp. Clin. Chemother. […] Adv.

[2] = test system: Escherichia coli D21f2tolC; assay: microbe, parasite or virus in culture; conditions: 16 h
[3] = test system: Staphylococcus aureus ATCC 12600; assay: Inhibition of bacterial growth in culture, spiral gradient endpoint assay (MIC); conditions: Staphylococcus aureus, ATCC12600, 16 h
[4] = read-out: MIC E. faecalis, Mueller-Hinton II agar, 16 h at 37° C.
[5] = read-out: MIC E. coli D21f2tolC, Mueller-Hinton II agar, 16 h at 37° C.
[6] = read-out: MIC S. aureus 12600, Mueller-Hinton II agar, 16 h at 37° C.

SMILES | MIC [1, 4] [µg/mL] | MIC [2, 5] [µg/mL] | MIC [3, 6] [µg/mL] | MIC ([1]; read-out: MIC E. faecalis) [µg/mL] | MIC ([2]; read-out: MIC E. coli D21f2tolC) [µg/mL] | MIC ([3]; read-out: MIC S. aureus 12600) [µg/mL]
O=C(C=Cc1ccc(Oc2ccc(Cl)cc2)cc1)c1c(O)cc(O)cc1O (mixture of isomers) [Example 5, (E)-3-(4-(4-chlorophenoxy)phenyl)-1-(2,4,6-trihydroxyphenyl)prop-2-en-1-one] | 6 | 1.6 | 2.6 | – | – | –
CC(Cc1ccc(Cl)cc1)C(=O)c1c(O)cc(O)cc1O (racemic) [Example 30, 3-(4-chlorophenyl)-2-methyl-1-(2,4,6-trihydroxyphenyl)propan-1-one] | 17 (≈ 55.4 µM) | 6.5 (≈ 21.2 µM) | 14 (≈ 45.6 µM) | – | – | –
Cc1ccc(CCC(=O)c2c(O)cc(O)cc2O)s1 [Example 1, 3-(5-methylthiophen-2-yl)-1-(2,4,6-trihydroxyphenyl)propan-1-one] | > 40 | 24 (≈ 86.2 µM) | 32 (≈ 115 µM) | – | – | –
O=C(c1c(O)cc(O)cc1O)C1CC1c1ccc(Cl)cc1 (centres unmarked) [Example 2, (2-(4-chlorophenyl)cyclopropyl)(2,4,6-trihydroxyphenyl)methanone] | 12 (≈ 39.4 µM) | 9.3 (≈ 30.5 µM) | 12 (≈ 39.4 µM) | – | – | –
O=C(CCc1ccc(Oc2cccc(Cl)c2)cc1)c1c(O)cc(O)cc1O [Example 3, 3-(4-(3-chlorophenoxy)phenyl)-1-(2,4,6-trihydroxyphenyl)propan-1-one] | 3.7 (≈ 9.62 µM) | 1.9 (≈ 4.94 µM) | 1.9 (≈ 4.94 µM) | – | – | –
O=C(CCc1ccc(Oc2ccc(Cl)cc2)cc1)c1c(O)cc(O)cc1O [Example 4, 3-(4-(4-chlorophenoxy)phenyl)-1-(2,4,6-trihydroxyphenyl)propan-1-one] | – | – | – | 3.2 (≈ 8.32 µM) | 1.5 (≈ 3.9 µM) | 2.4 (≈ 6.24 µM)
O=C(/C=C/c1ccc(Oc2ccccn2)cc1)c1c(O)cc(O)cc1O [Example 6, (E)-3-(4-(pyridin-2-yloxy)phenyl)-1-(2,4,6-trihydroxyphenyl)prop-2-en-1-one] | > 40 | > 40 | > 40 | – | – | –
O=C(/C=C/c1ccc(OCc2ccccc2)cc1)c1c(O)cc(O)cc1O [Example 7] | > 40 | 16 (≈ 44.2 µM) | > 40 | – | – | –
O=C(/C=C/c1ccc(Oc2ccccc2)cc1)c1c(O)cc(O)cc1O [Example 8, (E)-3-(4-phenoxyphenyl)-1-(2,4,6-trihydroxyphenyl)prop-2-en-1-one] | 31 (≈ 89 µM) | 3.8 (≈ 10.9 µM) | 6.5 (≈ 18.7 µM) | – | – | –
O=C(/C=C/c1ccc(C(F)(F)F)cc1C(F)(F)F)c1c(O)cc(O)cc1O [Example 9, (E)-3-(2,4-bis(trifluoromethyl)phenyl)-1-(2,4,6-trihydroxyphenyl)prop-2-en-1-one] | 16 (≈ 40.8 µM) | 8 (≈ 20.4 µM) | 13 (≈ 33.1 µM) | – | – | –
O=C(CCc1ccc(Oc2ccc(F)cc2)cc1)c1c(O)cc(O)cc1O [Example 10, 3-(4-(4-fluorophenoxy)phenyl)-1-(2,4,6-trihydroxyphenyl)propan-1-one] | 5.1 (≈ 13.8 µM) | 1.5 (≈ 4.07 µM) | 3.1 (≈ 8.42 µM) | – | – | –
O=C(/C=C/c1ccc(Oc2ccc(F)cc2)cc1)c1c(O)cc(O)cc1O [Example 11, (E)-3-(4-(4-fluorophenoxy)phenyl)-1-(2,4,6-trihydroxyphenyl)prop-2-en-1-one] | > 40 | 5.9 (≈ 16.1 µM) | 17 (≈ 46.4 µM) | – | – | –
O=C(c1c(O)cc(O)cc1O)C1CC1c1ccc(Oc2ccc(F)cc2)cc1 (centres unmarked) [Example 12, (2-(4-(4-fluorophenoxy)phenyl)cyclopropyl)(2,4,6-trihydroxyphenyl) methanone] | 4 (≈ 10.5 µM) | 1.5 (≈ 3.94 µM) | 3.1 (≈ 8.15 µM) | – | – | –
O=C(c1c(O)cc(O)cc1O)C1CC1c1ccc(Oc2ccc(Cl)cc2)cc1 (centres unmarked) [Example 13, (2-(4-(4-chlorophenoxy)phenyl)cyclopropyl)(2,4,6-trihydroxyphenyl)methanone] | 4.8 (≈ 12.1 µM) | 2.1 (≈ 5.29 µM) | 4.3 (≈ 10.8 µM) | – | – | –
O=C(/C=C/c1ccc(C(F)(F)F)cc1)c1c(O)cc(O)cc1O [Example 14, (E)-3-(4-(trifluoromethyl)phenyl)-1-(2,4,6-trihydroxyphenyl)prop-2-en-1-one] | 32 (≈ 98.7 µM) | 20 (≈ 61.7 µM) | 32 (≈ 98.7 µM) | – | – | –
O=C(/C=C/c1ccc(Oc2ccccc2)cc1C(F)(F)F)c1c(O)cc(O)cc1O [Example 15, (E)-3-(4-phenoxy-2-(trifluoromethyl)phenyl)-1-(2,4,6-trihydroxyphenyl)prop-2-en-1-one] | 3.6 (≈ 8.65 µM) | 1.8 (≈ 4.32 µM) | 3.2 (≈ 7.69 µM) | – | – | –
O=C(CCc1ccc(Oc2ccccc2)cc1C(F)(F)F)c1c(O)cc(O)cc1O [Example 16, 3-(4-phenoxy-2-(trifluoromethyl)phenyl)-1-(2,4,6-trihydroxyphenyl)propan-1-one] | 1.8 (≈ 4.3 µM) | 1.3 (≈ 3.11 µM) | 1.1 (≈ 2.63 µM) | – | – | –
O=C(/C=C/c1ccc(Oc2ccc(Cl)cc2)cc1C(F)(F)F)c1c(O)cc(O)cc1O [Example 17, (E)-3-(4-(4-chlorophenoxy)-2-(trifluoromethyl)phenyl)-1-(2,4,6-trihydroxyphenyl)prop-2-en-1-one] | 1.9 (≈ 4.21 µM) | 2.5 (≈ 5.55 µM) | 1.8 (≈ 3.99 µM) | – | – | –
Cc1cc(Oc2ccc(Cl)cc2)ccc1/C=C/C(=O)c1c(O)cc(O)cc1O [Example 18, (E)-3-(4-(4-chlorophenoxy)-2-methylphenyl)-1-(2,4,6-trihydroxyphenyl)prop-2-en-1-one] | 2.4 (≈ 6.05 µM) | 1.1 (≈ 2.77 µM) | 1.3 (≈ 3.28 µM) | – | – | –
Cc1ccc(C2CC2C(=O)c2c(O)cc(O)cc2O)cc1 (centres unmarked) [Example 19, (2-(p-tolyl)cyclopropyl)(2,4,6-trihydroxyphenyl)methanone] | > 40 | 13 (≈ 45.7 µM) | 20 (≈ 70.3 µM) | – | – | –
Cc1ccc(C2CC2C(=O)c2c(O)cc(O)cc2O)c(C)c1 (centres unmarked) [Example 20, (2-(2,4-dimethylphenyl)cyclopropyl)(2,4,6-trihydroxyphenyl)methanone] | 2.4 (≈ 8.04 µM) | 1.7 (≈ 5.7 µM) | 2.1 (≈ 7.04 µM) | – | – | –
CCOc1ccc(C2CC2C(=O)c2c(O)cc(O)cc2O)cc1 (centres unmarked) [Example 21, (2-(4-ethoxyphenyl)cyclopropyl)(2,4,6-trihydroxyphenyl)methanone] | > 40 | 20 (≈ 63.6 µM) | 16 (≈ 50.9 µM) | – | – | –
O=C(c1c(O)cc(O)cc1O)C1CC1c1ccc(Oc2ccccc2)cc1 (centres unmarked) [Example 22, (2-(4-phenoxyphenyl)cyclopropyl)(2,4,6-trihydroxyphenyl) methanone] | 1.3 (≈ 3.59 µM) | 0.49 (≈ 1.35 µM) | 1 (≈ 2.76 µM) | – | – | –
O=C(CCc1ccc(Oc2ccc(Cl)cc2)cc1C(F)(F)F)c1c(O)cc(O)cc1O [Example 23, 3-(4-(4-chlorophenoxy)-2-(trifluoromethyl)phenyl)-1-(2,4,6-trihydroxyphenyl)propan-1-one] | 1.7 (≈ 3.75 µM) | 1.7 (≈ 3.75 µM) | 1.1 (≈ 2.43 µM) | – | – | –
Cc1cc(Oc2ccc(Cl)cc2)ccc1CCC(=O)c1c(O)cc(O)cc1O [Example 24, 3-(4-(4-chlorophenoxy)-2-methylphenyl)-1-(2,4,6-trihydroxyphenyl)propan-1-one] | 3 (≈ 7.52 µM) | 1.1 (≈ 2.76 µM) | 1.8 (≈ 4.51 µM) | – | – | –
O=C(c1c(O)cc(O)cc1O)C1CC1c1ccc(Oc2ccc(Cl)cc2)cc1C(F)(F)F (centres unmarked) [Example 25, (2-(4-(4-chlorophenoxy)-2-(trifluoromethyl)phenyl)cyclopropyl)(2,4,6-trihydroxyphenyl)methanone] | 1.7 (≈ 3.66 µM) | 1.5 (≈ 3.23 µM) | 1.7 (≈ 3.66 µM) | – | – | –
CCCc1c(O)cc(O)c(C(=O)/C=C/c2ccc(Oc3ccc(F)cc3)cc2)c1O [Example 67, (E)-3-(4-(4-fluorophenoxy)phenyl)-1-(2,4,6-trihydroxy-3-propylphenyl)prop-2-en-1-one] | 0.55 (≈ 1.35 µM) | 0.72 (≈ 1.76 µM) | – | – | – | –
